Data taken from patent US6677310B1, “Ring-expanded nucleosides and nucleotides” (Nabi, priority 1999, dated 2004).

Key:
Type in all cases: cell-based, human
CCRF-CEM = assay: SRB anti-cancer assay, Leukemia; settings: 48 h
RPMI-8226 = assay: SRB anti-cancer assay, Leukemia; settings: RPMI-8226 (Leukemia), 48 h
SR = assay: SRB anti-cancer assay, Leukemia; settings: 48 h
HOP-62 = HOP-62 (Non-Small Cell Lung Cancer), 48 h
NCI-H23 = NCI-H23 (Non-Small Cell Lung Cancer), 48 h
NCI-H460 = NCI-H460 (Non-Small Cell Lung Cancer), 48 h
COLO 205 = assay: SRB anti-cancer assay, Colon Cancer; settings: COLO 205 (Colon Cancer), 48 h
HCC-2998 = assay: SRB anti-cancer assay, Colon Cancer; settings: HCC-2998 (Colon Cancer), 48 h
HCT-116 = assay: SRB anti-cancer assay, Colon Cancer; settings: HCT-116 (Colon Cancer), 48 h
HCT-15 = assay: SRB anti-cancer assay, Colon Cancer; settings: HCT-15 (Colon Cancer), 48 h
KM12 = assay: SRB anti-cancer assay, Colon Cancer; settings: 48 h
SW-620 = assay: SRB anti-cancer assay, Colon Cancer; settings: SW-620 (Colon Cancer), 48 h
SF-268 = assay: SRB anti-cancer assay, CNS Cancer; settings: SF-268 (CNS Cancer), 48 h
SF-295 = assay: SRB anti-cancer assay, CNS Cancer; settings: SF-295 (CNS Cancer), 48 h
MALME-3M = assay: SRB anti-cancer assay, Melanoma; settings: MALME-3M (Melanoma), 48 h
M14 = assay: SRB anti-cancer assay, Melanoma; settings: 48 h
SK-MEL-28 = assay: SRB anti-cancer assay, Melanoma; settings: SK-MEL-28 (Melanoma), 48 h
UACC-62 = assay: SRB anti-cancer assay, Melanoma; settings: UACC-62 (Melanoma), 48 h
OVCAR-3 = assay: SRB anti-cancer assay, Ovarian Cancer; settings: OVCAR-3 (Ovarian Cancer), 48 h
OVCAR-8 = assay: SRB anti-cancer assay, Ovarian Cancer; settings: OVCAR-8 (Ovarian Cancer), 48 h
786-0 = assay: SRB anti-cancer assay, Renal Cancer; settings: 786-0 (Renal Cancer), 48 h
CAKI-1 = assay: SRB anti-cancer assay, Renal Cancer; settings: CAKI-1 (Renal Cancer), 48 h
SN12C = assay: SRB anti-cancer assay, Renal Cancer; settings: 48 h
UO-31 = assay: SRB anti-cancer assay, Renal Cancer; settings: UO-31 (Renal Cancer), 48 h
NCI/ADR-RES = assay: SRB anti-cancer assay, Breast Cancer; settings: 48 h
MDA-MB- 231/ATCC = assay: SRB anti-cancer assay, Breast Cancer; settings: MDA-MB- 231/ATCC (Breast Cancer), 48 h
MDA-MB-435 = assay: SRB anti-cancer assay, Breast Cancer; settings: MDA-MB-435 (Breast Cancer), 48 h
MDA-N = assay: SRB anti-cancer assay, Breast Cancer; settings: 48 h
T-47D = assay: SRB anti-cancer assay, Breast Cancer; settings: T-47D (Breast Cancer), 48 h
[1] = read-out: LC50 (the source's name)

For `N=c1[nH]c(=O)c2ncn([C@@H]3O[C@H](CO)[C@@H](O)[C@H]3O)c2c(=O)[nH]1` [Compound 14-1, 6-Imino-6H-1-β-D-ribofuranosyl-4,5,7,8-tetrahydroimidazo[4,5-e][1,3]diazepine-4,8-dione], the GI50 (CCRF-CEM) was over 100 µM, the TGI (CCRF-CEM) was over 100 µM and the CC50 (CCRF-CEM; [1]) was over 100 µM. It also gave a GI50 (RPMI-8226) of over 100 µM, a TGI (RPMI-8226) of over 100 µM and a CC50 (RPMI-8226; [1]) of over 100 µM. The GI50 (SR) was over 100 µM, the LC50 (concentration killing 50% of cells) (SR) was over 100 µM and the TGI (SR) was over 100 µM. For the same compound, the GI50 (HOP-62) was over 100 µM, the LC50 (concentration for 50% net cell kill) (HOP-62) was over 100 µM and the TGI (HOP-62) was over 100 µM. The GI50 (NCI-H23) was over 100 µM, the TGI (NCI-H23) was over 100 µM and the CC50 (NCI-H23; [1]) was over 100 µM. It also gave a GI50 (NCI-H460) of over 100 µM, a TGI (NCI-H460) of over 100 µM and a CC50 (NCI-H460; [1]) of over 100 µM. It also gave a GI50 (COLO 205) of over 100 µM, an LC50 (COLO 205) of over 100 µM and a TGI (COLO 205) of over 100 µM. The GI50 (HCC-2998) was over 100 µM, the TGI (HCC-2998) was over 100 µM and the CC50 (HCC-2998; [1]) was over 100 µM. It also gave a GI50 (HCT-116) of over 100 µM, a TGI (HCT-116) of over 100 µM and a CC50 (HCT-116; [1]) of over 100 µM. The GI50 (HCT-15) was over 100 µM, the TGI (HCT-15) was over 100 µM and the CC50 (HCT-15; [1]) was over 100 µM. For the same compound, the GI50 (KM12) was over 100 µM, the LC50 (KM12) was over 100 µM and the TGI (KM12) was over 100 µM. It also gave a GI50 (SW-620) of over 100 µM, a TGI (SW-620) of over 100 µM and a CC50 (SW-620; [1]) of over 100 µM. The GI50 (SF-268) was over 100 µM, the TGI (SF-268) was over 100 µM and the CC50 (SF-268; [1]) was over 100 µM. It also gave a GI50 (SF-295) of over 100 µM, a TGI (SF-295) of over 100 µM and a CC50 (SF-295; [1]) of over 100 µM. It also gave a GI50 (MALME-3M) of over 100 µM, an LC50 (MALME-3M) of over 100 µM and a TGI (MALME-3M) of over 100 µM. The GI50 (M14) was over 100 µM, the TGI (M14) was over 100 µM and the CC50 (M14; [1]) was over 100 µM. The GI50 (SK-MEL-28) was over 100 µM, the LC50 (SK-MEL-28) was over 100 µM and the TGI (SK-MEL-28) was over 100 µM. The GI50 (UACC-62) was over 100 µM, the TGI (UACC-62) was over 100 µM and the CC50 (UACC-62; [1]) was over 100 µM. It also gave a GI50 (OVCAR-3) of over 100 µM, a TGI (OVCAR-3) of over 100 µM and a CC50 (OVCAR-3; [1]) of over 100 µM. For the same compound, the GI50 (OVCAR-8) was over 100 µM, the LC50 (50% lethal concentration) (OVCAR-8) was over 100 µM and the TGI (OVCAR-8) was over 100 µM. For the same compound, the GI50 (786-0) was over 100 µM, the TGI (786-0) was over 100 µM and the CC50 (786-0; [1]) was over 100 µM. For the same compound, the GI50 (CAKI-1) was over 100 µM, the TGI (CAKI-1) was over 100 µM and the CC50 (CAKI-1; [1]) was over 100 µM. The GI50 (SN12C) was over 100 µM, the TGI (SN12C) was over 100 µM and the CC50 (SN12C; [1]) was over 100 µM. The GI50 (UO-31) was over 100 µM, the TGI (UO-31) was over 100 µM and the CC50 (UO-31; [1]) was over 100 µM. For the same compound, the GI50 (NCI/ADR-RES) was over 100 µM, the TGI (NCI/ADR-RES) was over 100 µM and the CC50 (NCI/ADR-RES; [1]) was over 100 µM. The TGI (MDA-MB- 231/ATCC) was over 100 µM, the CC50 (MDA-MB- 231/ATCC; [1]) was over 100 µM and the GI50 (MDA-MB-435) was over 100 µM. For the same compound, the TGI (MDA-MB-435) was over 100 µM, the CC50 (MDA-MB-435; [1]) was over 100 µM and the GI50 (MDA-N) was over 100 µM. The TGI (MDA-N) was over 100 µM, the CC50 (MDA-N; [1]) was over 100 µM and the GI50 (T-47D) was over 100 µM. The TGI (T-47D) was over 100 µM and the CC50 (T-47D; [1]) was over 100 µM.
